Experiments:
[1] = test system: LN229 human glioblastoma cells; assay: LN229 human glioblastoma cells stereotactically injected into nude mice brain: treatment with macitentan and temozolomide (Example 1); format: in vivo; settings: nude mice with intracerebral LN229; treatment from two weeks after injection; temozolomide 7.5 mg/kg oral daily one week on/two weeks off; macitentan 10 mg/kg oral daily; day 100
Experimental: (§1) Forty-eight (48) female Swiss Nude mice were obtained from Charles River (France). […] Animal experiments were performed according to the European ethical guidelines of animal experimentation.
The mice were monitored daily and euthanized when they developed neurologic symptoms or became moribund. Days of survival were recorded and brain tissues were harvested and processed for histologic examinations. The experiment was terminated on day 100.

[2] = test system: phosphorylated AKT and MAPK; assay: Immunohistochemistry of tumors using antibodies against phosphorylated AKT and MAPK; format: in vivo, mice; settings: tumors of treated animals, Examples 1 and 2 (macitentan) and Example 3 (atrasentan, zibotentan)
Description: Suppression of survival and proliferation pathways sensitizes cells to chemotherapy and could be the reason for the high effectiveness of macitentan in combination with chemotherapy.

[3] = test system: LN229 human glioblastoma cells; assay: LN229 human glioblastoma cells stereotactically injected into nude mice brain: treatment with macitentan and paclitaxel (Example 2); format: in vivo; settings: nude mice with intracerebral LN229, paclitaxel 8.5 mg/kg intraperitoneal weekly, macitentan 10 mg/kg oral daily
Experimental: as §1

SMILES	survival rate after 100 days [1]	reduction of phosphorylated AKT and MAPK in tumors (immunohistochemistry) [2]	survival after 70 days [3]
CCCNS(=O)(=O)Nc1ncnc(OCCOc2ncc(Br)cn2)c1-c1ccc(Br)cc1 [macitentan]	about 40%	strong reduction of both proteins	about 60%
COc1nc(C)cnc1NS(=O)(=O)c1cccnc1-c1ccc(-c2nnco2)cc1 [Zibotentan, zibotentan]	–	much less prominent	–
CCCCN(CCCC)C(=O)CN1C[C@H](c2ccc3c(c2)OCO3)[C@@H](C(=O)O)[C@@H]1c1ccc(OC)cc1 [Atrasentan, atrasentan]	–	much less prominent	–
Cn1nnc2c(C(N)=O)ncn2c1=O [TMZ, temozolomide]	about 40%	–	–
CC(=O)O[C@H]1C(=O)[C@@]2(C)[C@H]([C@H](OC(=O)c3ccccc3)[C@]3(O)C[C@H](OC(=O)[C@H](O)[C@@H](NC(=O)c4ccccc4)c4ccccc4)C(C)=C1C3(C)C)[C@]1(OC(C)=O)CO[C@@H]1C[C@@H]2O [PTL, paclitaxel]	–	–	about 60%

Reference: US20130310407A1, “COMBINATIONS COMPRISING MACITENTAN FOR THE TREATMENT OF GLIOBLASTOMA MULTIFORME” (ACTELION PHARMACEUTICALS LTD., priority 2011, published 2013)
